Strand notation (5' to 3'): a small letter for the sugar, then the base; units joined by * are phosphorothioate-linked, units joined directly phosphodiester-linked; [ ] holds rarer units or linkages, { } end groups; capitals alone tell only the bases. e = 2'-O-(2-methoxyethyl) (MOE); [5mC] = 5-methylcytosine; d = 2'-deoxy (DNA)
Legend:
[1] = Hematology assays in cynomolgus monkeys (Example 46); assay type: in vivo
Method: (§1) Groups, each consisting of two male and two female monkeys, were injected subcutaneously with 25 mg/kg of ISIS 416850, ISIS 449709, ISIS 445522, ISIS 449710, ISIS 449707, ISIS 449711, ISIS 449708, 416858, and ISIS 445531. Antisense oligonucleotide was administered to the monkeys at 25 mg/kg three times per week for week 1 and 25 mg/kg twice per week for weeks 2 to 8. A control group, consisting of two male and two female monkeys was injected subcutaneously with PBS according to the same dosing regimen. Body weights were taken 14 days and 7 days before the start of treatment and were then measured weekly throughout the treatment period. Blood samples were collected 14 days and 5 days before the start of treatment and subsequently several times during the dosing regimen for PT and aPTT measurements, and measurement of various hematologic factors. On day 55, the monkeys were euthanized by exsanguination while under deep anesthesia, and organs harvested for further analysis.

[2] = tested on: IL-1β, IL-6, IFN-γ, TNF-α, IL-8, MIP-1α, MCP-1, MIP-1β, RANTES; experiment: Cytokine and chemokine assays in cynomolgus monkeys (Example 46); assay type: in vivo
Method: as §1
Blood samples obtained from all monkey groups were sent to Pierce Biotechnology (Woburn, Mass.) for measurements of chemokine and cytokine levels. Levels of IL-1β, IL-6, IFN-γ, and TNF-α were measured using the respective primate antibodies and levels of IL-8, MIP-1α, MCP-1, MIP-1β and RANTES were measured using the respective cross-reacting human antibodies. Measurements were taken 14 days before the start of treatment and on day 55, when the monkeys were euthanized.

[3] = day-14 (before start of treatment)

Which results are given for “ISIS 449711: 3-8-3, 4-8-4, 2-10-2, 3-10-3 or 4-10-4 MOE microwalk gapmer (Table 46) (antisense eA*e[5mC]*dA*dG*dT*dT*dT*d[5mC]*dT*dG*dG*d[5mC]*eA*eG)”?
HCT ([1]; Day 17): 42%; MCH ([1]; Day 17): 22.2 pg; MCHC ([1]; Day 17): 29.9 g/dL; MCV ([1]; Day 17): 75 fL; RBC count ([1]; Day 17): 5.6e+06 µL⁻¹; WBC count ([1]; Day 17): 10000 µL⁻¹; hemoglobin content ([1]; Day 17): 12.5 g/dL; monocytes ([1]; Day 17): 5.9%; neutrophils ([1]; Day 17): 52%; platelet count ([1]; Day 17): 325 ×100/μL; HCT ([1]; Day 31): 39%; MCH ([1]; Day 31): 22.1 pg; MCHC ([1]; Day 31): 29.8 g/dL; MCV ([1]; Day 31): 73 fL; RBC count ([1]; Day 31): 5.4e+06 µL⁻¹; WBC count ([1]; Day 31): 9000 µL⁻¹; hemoglobin content ([1]; Day 31): 11.8 g/dL; monocytes ([1]; Day 31): 6.9%; neutrophils ([1]; Day 31): 58%; platelet count ([1]; Day 31): 309 ×100/μL; HCT ([1]; Day 45): 39%; MCH ([1]; Day 45): 21.7 pg; MCHC ([1]; Day 45): 29.6 g/dL; MCV ([1]; Day 45): 73 fL; RBC count ([1]; Day 45): 5.4e+06 µL⁻¹; WBC count ([1]; Day 45): 9000 µL⁻¹; hemoglobin content ([1]; Day 45): 11.5 g/dL; monocytes ([1]; Day 45): 7.6%; neutrophils ([1]; Day 45): 45%; platelet count ([1]; Day 45): 257 ×100/μL; HCT ([1]; Day 55): 38%; MCH ([1]; Day 55): 21.3 pg; MCHC ([1]; Day 55): 29.5 g/dL; MCV ([1]; Day 55): 73 fL; RBC count ([1]; Day 55): 5.3e+06 µL⁻¹; WBC count ([1]; Day 55): 7000 µL⁻¹; hemoglobin content ([1]; Day 55): 11.3 g/dL; monocytes ([1]; Day 55): 7.8%; neutrophils ([1]; Day 55): 70%; platelet count ([1]; Day 55): 259 ×100/μL; HCT ([1]; Day-5): 41%; MCH ([1]; Day-5): 22.7 pg; MCHC ([1]; Day-5): 30.7 g/dL; MCV ([1]; Day-5): 74 fL; RBC count ([1]; Day-5): 5.7e+06 µL⁻¹; WBC count ([1]; Day-5): 12000 µL⁻¹; hemoglobin content ([1]; Day-5): 12.7 g/dL; monocytes ([1]; Day-5): 2.3%; neutrophils ([1]; Day-5): 71%; platelet count ([1]; Day-5): 431 ×100/μL; HCT ([1]; Day-14): 41%; MCH ([1]; Day-14): 22.6 pg; MCHC ([1]; Day-14): 31.0 g/dL; MCV ([1]; Day-14): 73 fL; RBC count ([1]; Day-14): 5.6e+06 µL⁻¹; WBC count ([1]; Day-14): 13000 µL⁻¹; hemoglobin content ([1]; Day-14): 12.7 g/dL; monocytes ([1]; Day-14): 1.2%; neutrophils ([1]; Day-14): 64%; platelet count ([1]; Day-14): 410 ×100/μL; IFN-γ level ([2]; day 55): 22 pg/mL; IL-1ß level ([2]; day 55): 146 pg/mL; IL-6 level ([2]; day 55): 7 pg/mL; IL-8 level ([2]; day 55): 110 pg/mL; MCP-1 level ([2]; day 55): 469 pg/mL; MIP-1ß level ([2]; day 55): 91 pg/mL; MIP-1α level ([2]; day 55): 17 pg/mL; RANTES level ([2]; day 55): 3029 pg/mL; TNF-α level ([2]; day 55): 31 pg/mL; IFN-γ level [2, 3]: 29 pg/mL; IL-1ß level [2, 3]: 79 pg/mL; IL-6 level [2, 3]: 2 pg/mL; IL-8 level [2, 3]: 156 pg/mL; MCP-1 level [2, 3]: 264 pg/mL; MIP-1ß level [2, 3]: 24 pg/mL; MIP-1α level [2, 3]: 20 pg/mL; RANTES level [2, 3]: 3687 pg/mL; TNF-α level [2, 3]: 6 pg/mL
